*1 amine or outer side, *2 acyl side, *3 side chain or, on linkers, in order; H or OH if unused. Where a SMILES comes first, the peptide text is derived from it. Side-chain parts run from the residue outwards. [ ]: non-standard residue; d: D form. The star is where a group is joined. Isobutyryl(2-(3-CN-5-F-Ph)) = CC(C)(C(=O)*)c1cc(F)cc(C#N)c1; C20 diacid = O=C(O)CCCCCCCCCCCCCCCCCCC(=O)*; NH(4-OCF3-phenyl) = FC(F)(F)Oc1ccc(N*)cc1; X49 = O=C([C@H](CN[*:1])c1ccccc1)[*:2]; γGlu = O=C(O)[C@H](CCC(=O)[*:2])N[*:1]; X35 = N#Cc1cc(F)cc(C2(C(=O)*)CCCC2)c1; X26 = O=C(C1(c2ccccc2)CCCC1)*; X76 = CC(C)(C(=O)*)c1cncnc1; AEEA = NCCOCCOCC(=O)O; Aib = CC(C)(N)C(=O)O; CO = O=C([*:1])[*:2]; GABA = NCCCC(=O)O; βAla = NCCC(=O)O
Tests used:
Format in all cases: cell-based
GLP-1 receptor [1] = biological target: T1, GLP-1 receptor (Homo sapiens, UniProt P43220); assay: HitHunter cAMP assay, GLP-1 receptor; settings: for EC50: CHO cells stably expressing human GLP-1 receptor, cAMP accumulation, 30 min, read-out: EC50 GLP-1R; for Emax: CHO cells, cAMP, normalized to maximum signal from GLP-1 (high) and DMSO (low), read-out: Emax GLP-1R
GIP receptor [2] = biological target: T2, GIP receptor (Homo sapiens, UniProt P48546); assay: HitHunter cAMP assay, GIP receptor; settings: for EC50: CHO cells stably expressing GIP receptor, cAMP accumulation, 30 min, read-out: EC50 GIP-1R; for Emax: CHO cells, cAMP, normalized to maximum signal from GIP (high) and DMSO (low), read-out: Emax GIP-1R
T2 sequence (P48546 22-466): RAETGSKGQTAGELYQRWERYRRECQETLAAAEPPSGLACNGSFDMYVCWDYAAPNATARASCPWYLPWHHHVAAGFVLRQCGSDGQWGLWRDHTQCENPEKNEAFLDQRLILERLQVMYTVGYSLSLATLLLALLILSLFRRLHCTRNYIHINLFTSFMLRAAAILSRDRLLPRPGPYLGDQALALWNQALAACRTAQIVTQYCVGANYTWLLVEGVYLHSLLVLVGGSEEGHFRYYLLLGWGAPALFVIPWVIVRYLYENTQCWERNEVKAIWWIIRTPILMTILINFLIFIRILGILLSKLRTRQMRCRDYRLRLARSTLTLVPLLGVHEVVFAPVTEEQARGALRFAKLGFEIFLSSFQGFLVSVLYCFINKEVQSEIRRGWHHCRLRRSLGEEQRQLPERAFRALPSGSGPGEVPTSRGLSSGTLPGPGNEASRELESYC

GIP receptor [3] = biological target: T2, GIP receptor; assay: PathHunter β-arrestin assay, GIP receptor; design: host or cells: PathHunter CHO-K1 GIPR β-Arrestin Cell Line; settings: β-arrestin-2 recruitment, PathHunter CHO-K1 GIPR β-Arrestin Cell Line, 90 min at 37° C.; normalized to GIP; read-out: GIPR β Arrestin EC50
GLP-1 receptor [4] = biological target: T1, GLP-1 receptor; assay: PathHunter β-arrestin assay, GLP-1 receptor; design: host or cells: PathHunter CHO-K1 GLP1R β-Arrestin Cell Line; settings: β-arrestin-2 recruitment, PathHunter CHO-K1 GLP1R β-Arrestin Cell Line, 90 min at 37° C.; normalized to GLP-1; read-out: GLP-1R β Arrestin EC50

T1 sequence (P43220 24-463): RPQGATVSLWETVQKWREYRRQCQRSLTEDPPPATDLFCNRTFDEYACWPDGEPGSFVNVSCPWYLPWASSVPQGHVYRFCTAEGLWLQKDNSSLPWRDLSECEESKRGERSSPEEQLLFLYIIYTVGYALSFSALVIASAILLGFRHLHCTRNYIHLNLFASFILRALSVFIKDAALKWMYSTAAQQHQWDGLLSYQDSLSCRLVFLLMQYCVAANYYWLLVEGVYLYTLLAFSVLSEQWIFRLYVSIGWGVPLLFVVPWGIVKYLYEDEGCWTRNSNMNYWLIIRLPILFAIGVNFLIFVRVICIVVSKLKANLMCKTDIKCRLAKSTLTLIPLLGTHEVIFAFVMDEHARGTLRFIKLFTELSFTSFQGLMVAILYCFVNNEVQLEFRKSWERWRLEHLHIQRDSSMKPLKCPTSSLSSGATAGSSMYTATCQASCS

Row | SMILES | EC50 (GLP-1 receptor [1]) | Emax (GLP-1 receptor [1]) | EC50 (GIP receptor [2]) | Emax (GIP receptor [2]) | EC50 (GIP receptor [3]) | EC50 (GLP-1 receptor [4])
1 | CC[C@H](C)[C@H](NC(=O)[C@H](CC(C)C)NC(=O)[C@H](Cc1c[nH]c2ccccc12)NC(=O)[C@H](CCC(N)=O)NC(=O)[C@@H](NC(=O)[C@H](Cc1ccccc1)NC(=O)[C@H](C)NC(=O)[C@H](CCCCNC(=O)COCCOCCNC(=O)COCCOCCNC(=O)CC[C@H](NC(=O)CCCCCCCCCCCCCCCCCCC(=O)O)C(=O)O)NC(=O)[C@H](CCC(N)=O)NC(=O)[C@H](C)NC(=O)[C@@H](NC(=O)[C@H](CCCCN)NC(=O)[C@H](CC(=O)O)NC(=O)[C@H](CC(C)C)NC(=O)C(C)(C)NC(=O)[C@@H](NC(=O)[C@H](CO)NC(=O)[C@H](Cc1ccc(O)cc1)NC(=O)[C@H](CC(=O)O)NC(=O)[C@H](CO)NC(=O)[C@@H](NC(=O)[C@H](Cc1ccccc1)NC(=O)[C@@H](NC(=O)CNC(=O)[C@H](CCC(=O)O)NC(=O)[C@H](CNC(=O)C(C)(C)c1cc(F)cc(C#N)c1)c1ccccc1)[C@@H](C)O)[C@@H](C)O)[C@@H](C)CC)[C@@H](C)CC)C(C)C)C(=O)N[C@@H](C)C(=O)NCC(=O)NCC(=O)N1CCC[C@H]1C(=O)N[C@@H](CO)C(=O)N[C@@H](CO)C(=O)NCC(=O)N[C@@H](C)C(=O)N1CCC[C@H]1C(=O)N1CCC[C@H]1C(=O)N1CCC[C@H]1C(=O)N[C@@H](CO)C(N)=O [Compound 170] ({Isobutyryl(2-(3-CN-5-F-Ph))}-[X49]EGTFTSDYSI[Aib]LDKIAQK([AEEA-AEEA-γGlu-C20 diacid])AFVQWLIAGGPSSGAPPPS-NH2) | 100 to 1000 nM | 57% | 100 to 1000 nM | 37% | > 1000 nM | > 1000 nM
2 | CC[C@H](C)[C@H](NC(=O)[C@H](CC(C)C)NC(=O)[C@H](Cc1c[nH]c2ccccc12)NC(=O)[C@H](CCC(N)=O)NC(=O)[C@@H](NC(=O)[C@H](Cc1ccccc1)NC(=O)[C@H](C)NC(=O)[C@H](CCCCNC(=O)COCCOCCNC(=O)COCCOCCNC(=O)CC[C@H](NC(=O)CCCCCCCCCCCCCCCCCCC(=O)O)C(=O)O)NC(=O)[C@H](CCC(N)=O)NC(=O)[C@H](C)NC(=O)[C@@H](NC(=O)[C@H](CCCCN)NC(=O)[C@H](CC(=O)O)NC(=O)[C@H](CC(C)C)NC(=O)C(C)(C)NC(=O)[C@@H](NC(=O)[C@H](CO)NC(=O)[C@H](Cc1ccc(O)cc1)NC(=O)[C@H](CC(=O)O)NC(=O)[C@H](CO)NC(=O)[C@@H](NC(=O)[C@H](Cc1ccccc1)NC(=O)[C@@H](NC(=O)CNC(=O)[C@H](CCC(=O)O)NC(=O)CCCNC(=O)CNC(=O)Nc1ccc(OC(F)(F)F)cc1)[C@@H](C)O)[C@@H](C)O)[C@@H](C)CC)[C@@H](C)CC)C(C)C)C(=O)N[C@@H](C)C(=O)NCC(=O)NCC(=O)N1CCC[C@H]1C(=O)N[C@@H](CO)C(=O)N[C@@H](CO)C(=O)NCC(=O)N[C@@H](C)C(=O)N1CCC[C@H]1C(=O)N1CCC[C@H]1C(=O)N1CCC[C@H]1C(=O)N[C@@H](CO)C(N)=O [Compound 269] ({NH(4-OCF3-phenyl)-CO}-G[GABA]EGTFTSDYSI[Aib]LDKIAQK([AEEA-AEEA-γGlu-C20 diacid])AFVQWLIAGGPSSGAPPPS-NH2) | 1 to 10 nM | 96% | 1 to 10 nM | 103% | < 1000 nM | > 1000 nM
3 | CC[C@H](C)[C@H](NC(=O)[C@H](CC(C)C)NC(=O)[C@H](Cc1c[nH]c2ccccc12)NC(=O)[C@H](CCC(N)=O)NC(=O)[C@@H](NC(=O)[C@H](Cc1ccccc1)NC(=O)[C@H](C)NC(=O)[C@H](CCCCNC(=O)COCCOCCNC(=O)COCCOCCNC(=O)CC[C@H](NC(=O)CCCCCCCCCCCCCCCCCCC(=O)O)C(=O)O)NC(=O)[C@H](CCC(N)=O)NC(=O)[C@H](C)NC(=O)[C@@H](NC(=O)[C@H](CCCCN)NC(=O)[C@H](CC(=O)O)NC(=O)[C@H](CC(C)C)NC(=O)C(C)(C)NC(=O)[C@@H](NC(=O)[C@H](CO)NC(=O)[C@H](Cc1ccc(O)cc1)NC(=O)[C@H](CC(=O)O)NC(=O)[C@H](CO)NC(=O)[C@@H](NC(=O)[C@H](Cc1ccccc1)NC(=O)[C@@H](NC(=O)CNC(=O)[C@H](CCC(=O)O)NC(=O)CCNC(=O)C(C)(C)c1cncnc1)[C@@H](C)O)[C@@H](C)O)[C@@H](C)CC)[C@@H](C)CC)C(C)C)C(=O)N[C@@H](C)C(=O)NCC(=O)NCC(=O)N1CCC[C@H]1C(=O)N[C@@H](CO)C(=O)N[C@@H](CO)C(=O)NCC(=O)N[C@@H](C)C(=O)N1CCC[C@H]1C(=O)N1CCC[C@H]1C(=O)N1CCC[C@H]1C(=O)N[C@@H](CO)C(N)=O [Compound 161] ({X76-βAla}-EGTFTSDYSI[Aib]LDKIAQK([AEEA-AEEA-γGlu-C20 diacid])AFVQWLIAGGPSSGAPPPS-NH2) | 0.1 to 1 nM | 113% | 10 to 100 nM | 94% | > 1000 nM | > 1000 nM
4 | CC[C@H](C)[C@H](NC(=O)[C@H](CC(C)C)NC(=O)[C@H](Cc1c[nH]c2ccccc12)NC(=O)[C@H](CCC(N)=O)NC(=O)[C@@H](NC(=O)[C@H](Cc1ccccc1)NC(=O)[C@H](C)NC(=O)[C@H](CCCCNC(=O)COCCOCCNC(=O)COCCOCCNC(=O)CC[C@H](NC(=O)CCCCCCCCCCCCCCCCCCC(=O)O)C(=O)O)NC(=O)[C@H](CCC(N)=O)NC(=O)[C@H](C)NC(=O)[C@@H](NC(=O)[C@H](CCCCN)NC(=O)[C@H](CC(=O)O)NC(=O)[C@H](CC(C)C)NC(=O)C(C)(C)NC(=O)[C@@H](NC(=O)[C@H](CO)NC(=O)[C@H](Cc1ccc(O)cc1)NC(=O)[C@H](CC(=O)O)NC(=O)[C@H](CO)NC(=O)[C@@H](NC(=O)[C@H](Cc1ccccc1)NC(=O)[C@@H](NC(=O)CNC(=O)[C@H](CCC(=O)O)NC(=O)CCNC(=O)C1(c2ccccc2)CCCC1)[C@@H](C)O)[C@@H](C)O)[C@@H](C)CC)[C@@H](C)CC)C(C)C)C(=O)N[C@@H](C)C(=O)NCC(=O)NCC(=O)N1CCC[C@H]1C(=O)N[C@@H](CO)C(=O)N[C@@H](CO)C(=O)NCC(=O)N[C@@H](C)C(=O)N1CCC[C@H]1C(=O)N1CCC[C@H]1C(=O)N1CCC[C@H]1C(=O)N[C@@H](CO)C(N)=O [Compound 236] ({X26-βAla}-EGTFTSDYSI[Aib]LDKIAQK([AEEA-AEEA-γGlu-C20 diacid])AFVQWLIAGGPSSGAPPPS-NH2) | 0.1 to 1 nM | 127% | 1 to 10 nM | 114% | > 1000 nM | > 1000 nM
5 | CC[C@H](C)[C@H](NC(=O)[C@H](CC(C)C)NC(=O)[C@H](Cc1c[nH]c2ccccc12)NC(=O)[C@H](CCC(N)=O)NC(=O)[C@@H](NC(=O)[C@H](Cc1ccccc1)NC(=O)[C@H](C)NC(=O)[C@H](CCCCNC(=O)COCCOCCNC(=O)COCCOCCNC(=O)CC[C@H](NC(=O)CCCCCCCCCCCCCCCCCCC(=O)O)C(=O)O)NC(=O)[C@H](CCC(N)=O)NC(=O)[C@H](C)NC(=O)[C@@H](NC(=O)[C@H](CCCCN)NC(=O)[C@H](CC(=O)O)NC(=O)[C@H](CC(C)C)NC(=O)C(C)(C)NC(=O)[C@@H](NC(=O)[C@H](CO)NC(=O)[C@H](Cc1ccc(O)cc1)NC(=O)[C@H](CC(=O)O)NC(=O)[C@H](CO)NC(=O)[C@@H](NC(=O)[C@H](Cc1ccccc1)NC(=O)[C@@H](NC(=O)CNC(=O)[C@H](CCC(=O)O)NC(=O)CCNC(=O)C1(c2cc(F)cc(C#N)c2)CCCC1)[C@@H](C)O)[C@@H](C)O)[C@@H](C)CC)[C@@H](C)CC)C(C)C)C(=O)N[C@@H](C)C(=O)NCC(=O)NCC(=O)N1CCC[C@H]1C(=O)N[C@@H](CO)C(=O)N[C@@H](CO)C(=O)NCC(=O)N[C@@H](C)C(=O)N1CCC[C@H]1C(=O)N1CCC[C@H]1C(=O)N1CCC[C@H]1C(=O)N[C@@H](CO)C(N)=O [Compound 164] ({X35-βAla}-EGTFTSDYSI[Aib]LDKIAQK([AEEA-AEEA-γGlu-C20 diacid])AFVQWLIAGGPSSGAPPPS-NH2) | 1 to 10 nM | 112% | 1 to 10 nM | 106% | > 1000 nM | > 1000 nM

From US12281149B2, “Modulators of G-protein coupled receptors” (priority 2021, dated 2025)
